From patent US20220073554A1, “LINCOSAMIDE ANTIBIOTICS AND USES THEREOF” (President and Fellows of Harvard College, priority 2017, published 2022) come the findings set out here.

As usually defined, the MIC is the lowest concentration that inhibits growth of the organism.

Converted amounts (≈) assume the structure as drawn.

One assay deals with E. faecalis ATCC 29212. The assay can be described thus: MIC against E. faecalis ATCC 29212. The conditions noted are these: Enterococcus faecalis, ATCC29212, read-out: MIC. The assay is classed as cell-based.
As to `CSC1O[C@H]([C@H](NC(=O)[C@H]2NC[C@@H]3C=C(c4ccc(C(F)(F)F)cc4)CCO[C@@H]23)[C@H](C)Cl)C(O)[C@@H](O)[C@H]1O` (stereo partly shown) [FSA-507053], the MIC was 2 µg/mL (≈ 3.44 µM).
For the molecule `CSC1O[C@H]([C@H](NC(=O)[C@H]2NC[C@@H]3CC(c4ccc(F)cc4)=CCO[C@H]32)[C@H](C)Cl)C(O)[C@@H](O)[C@H]1O` (stereo partly shown) [FSA-507057], the MIC was 1 µg/mL (≈ 1.88 µM).

The test system of another assay is C. difficile BAA 1805. The assay can be described thus: MIC against C. difficile BAA 1805. The conditions noted are these: Clostridioides difficile, BAA1805; C. difficile BAA 1805; read-out: MIC. The assay is classed as cell-based.
In the case of `CSC1O[C@H]([C@H](NC(=O)[C@H]2NC[C@@H]3C=C(c4ccc(C(F)(F)F)cc4)CCO[C@@H]23)[C@H](C)Cl)C(O)[C@@H](O)[C@H]1O` (stereo partly shown) [FSA-507053], the MIC was determined as 8 µg/mL (≈ 13.8 µM).

Another assay has as its system S. pneumoniae MMX 3031 cMefA. Put plainly: MIC against S. pneumoniae MMX 3031 cMefA. The assay is classed as cell-based. To be noted: Streptococcus pneumoniae, MMX3031CMEFA.
Turning to `CSC1O[C@H]([C@H](NC(=O)[C@H]2NC[C@@H]3CC(c4ccc(F)cc4)=CCO[C@H]32)[C@H](C)Cl)C(O)[C@@H](O)[C@H]1O` (stereo partly shown) [FSA-507057], the MIC was ≤ 0.06 µg/mL.

The next assay relates to P. aeruginosa MMX Mex parent strain. The assay can be described thus: MIC against P. aeruginosa MMX Mex parent strain. To be noted: Pseudomonas aeruginosa. The assay is classed as cell-based.
As for `CSC1O[C@H]([C@H](NC(=O)[C@H]2NC[C@@H]3C=C(c4ccc(C(F)(F)F)cc4)CCO[C@@H]23)[C@H](C)Cl)C(O)[C@@H](O)[C@H]1O` (stereo partly shown) [FSA-507053], the MIC is > 64 µg/mL.
The same measure, in the same setting: with `CSC1O[C@H]([C@H](NC(=O)[C@H]2NC[C@@H]3CC(c4ccc(F)cc4)=CCO[C@H]32)[C@H](C)Cl)C(O)[C@@H](O)[C@H]1O` (stereo partly shown) [FSA-507057] the figure was > 64 µg/mL.

The test system of a further assay is S. aureus MMX 3035 cErmA. The assay can be described thus: MIC against S. aureus MMX 3035 cErmA. The assay is classed as cell-based. To be noted: Staphylococcus aureus, MMX3035CERMA.
With `CSC1O[C@H]([C@H](NC(=O)[C@H]2NC[C@@H]3C=C(c4ccc(C(F)(F)F)cc4)CCO[C@@H]23)[C@H](C)Cl)C(O)[C@@H](O)[C@H]1O` (stereo partly shown) [FSA-507053], the MIC was > 64 µg/mL.
On the same count and under the same terms, with `CSC1O[C@H]([C@H](NC(=O)[C@H]2NC[C@@H]3CC(c4ccc(F)cc4)=CCO[C@H]32)[C@H](C)Cl)C(O)[C@@H](O)[C@H]1O` (stereo partly shown) [FSA-507057] the figure was > 64 µg/mL.

For another assay, the system named is S. pyogenes ATCC 19615. The assay can be described thus: MIC against S. pyogenes ATCC 19615. In kind it is cell-based. The conditions noted are these: Streptococcus pyogenes, ATCC19615; S. pyogenes ATCC 19615; read-out: MIC.
For the molecule `CSC1O[C@H]([C@H](NC(=O)[C@H]2NC[C@@H]3C=C(c4ccc(C(F)(F)F)cc4)CCO[C@@H]23)[C@H](C)Cl)C(O)[C@@H](O)[C@H]1O` (stereo partly shown) [FSA-507053], the MIC is ≤ 0.06 µg/mL.

The subject of a further assay is S. aureus Micromyx USA 300. The assay can be described thus: MIC against S. aureus Micromyx USA 300. The conditions noted are these: Staphylococcus aureus, USA300; S. aureus Micromyx USA 300; read-out: MIC. In kind it is cell-based.
With `CSC1O[C@H]([C@H](NC(=O)[C@H]2NC[C@@H]3C=C(c4ccc(C(F)(F)F)cc4)CCO[C@@H]23)[C@H](C)Cl)C(O)[C@@H](O)[C@H]1O` (stereo partly shown) [FSA-507053], the MIC was found to be 0.5 µg/mL (≈ 0.861 µM).
For the molecule `CSC1O[C@H]([C@H](NC(=O)[C@H]2NC[C@@H]3CC(c4ccc(F)cc4)=CCO[C@H]32)[C@H](C)Cl)C(O)[C@@H](O)[C@H]1O` (stereo partly shown) [FSA-507057], the MIC is 1 µg/mL (≈ 1.88 µM).

For a further assay, the system named is P. aeruginosa ATCC 27853. Put plainly: MIC against P. aeruginosa ATCC 27853. The assay is classed as cell-based. To be noted: Pseudomonas aeruginosa, ATCC27853.
With `CSC1O[C@H]([C@H](NC(=O)[C@H]2NC[C@@H]3C=C(c4ccc(C(F)(F)F)cc4)CCO[C@@H]23)[C@H](C)Cl)C(O)[C@@H](O)[C@H]1O` (stereo partly shown) [FSA-507053], the MIC is > 64 µg/mL.
With `CSC1O[C@H]([C@H](NC(=O)[C@H]2NC[C@@H]3CC(c4ccc(F)cc4)=CCO[C@H]32)[C@H](C)Cl)C(O)[C@@H](O)[C@H]1O` (stereo partly shown) [FSA-507057], the MIC is > 64 µg/mL.

The next assay concerns E. coli ATCC 15922. The assay can be described thus: MIC against E. coli ATCC 15922. The assay is classed as cell-based. The conditions noted are these: Escherichia coli, ATCC15922.
Take `CSC1O[C@H]([C@H](NC(=O)[C@H]2NC[C@@H]3C=C(c4ccc(C(F)(F)F)cc4)CCO[C@@H]23)[C@H](C)Cl)C(O)[C@@H](O)[C@H]1O` (stereo partly shown) [FSA-507053]: the minimum inhibitory concentration (MIC) was > 64 µg/mL.
As for `CSC1O[C@H]([C@H](NC(=O)[C@H]2NC[C@@H]3CC(c4ccc(F)cc4)=CCO[C@H]32)[C@H](C)Cl)C(O)[C@@H](O)[C@H]1O` (stereo partly shown) [FSA-507057], the MIC is > 64 µg/mL.

In another assay the test system is P. aeruginosa MMX 3476 Δmex. The assay can be described thus: MIC against P. aeruginosa MMX 3476 Δmex. The conditions noted are these: Pseudomonas aeruginosa. The assay is classed as cell-based.
On to `CSC1O[C@H]([C@H](NC(=O)[C@H]2NC[C@@H]3C=C(c4ccc(C(F)(F)F)cc4)CCO[C@@H]23)[C@H](C)Cl)C(O)[C@@H](O)[C@H]1O` (stereo partly shown) [FSA-507053], for which the MIC is > 64 µg/mL.
On to `CSC1O[C@H]([C@H](NC(=O)[C@H]2NC[C@@H]3CC(c4ccc(F)cc4)=CCO[C@H]32)[C@H](C)Cl)C(O)[C@@H](O)[C@H]1O` (stereo partly shown) [FSA-507057], for which the MIC was > 64 µg/mL.

A further assay deals with S. aureus BAA 977 iErmA. The assay can be described thus: MIC against S. aureus BAA 977 iErmA. The assay is classed as cell-based. The conditions noted are these: Staphylococcus aureus, BAA977.
On to `CSC1O[C@H]([C@H](NC(=O)[C@H]2NC[C@@H]3CC(c4ccc(F)cc4)=CCO[C@H]32)[C@H](C)Cl)C(O)[C@@H](O)[C@H]1O` (stereo partly shown) [FSA-507057], for which the MIC was found to be 1 µg/mL (≈ 1.88 µM).

The test system of the next assay is E. faecalis MMX 847 Macrolide-Resistant. The assay can be described thus: MIC against E. faecalis MMX 847 Macrolide-Resistant. To be noted: Enterococcus faecalis. In kind it is cell-based.
In the case of `CSC1O[C@H]([C@H](NC(=O)[C@H]2NC[C@@H]3C=C(c4ccc(C(F)(F)F)cc4)CCO[C@@H]23)[C@H](C)Cl)C(O)[C@@H](O)[C@H]1O` (stereo partly shown) [FSA-507053], the MIC was > 64 µg/mL.
Still for that read-out and setting: with `CSC1O[C@H]([C@H](NC(=O)[C@H]2NC[C@@H]3CC(c4ccc(F)cc4)=CCO[C@H]32)[C@H](C)Cl)C(O)[C@@H](O)[C@H]1O` (stereo partly shown) [FSA-507057] the figure was > 64 µg/mL.

The test system of another assay is S. pyogenes MMX 946 Macrolide-Resistant. The assay can be described thus: MIC against S. pyogenes MMX 946 Macrolide-Resistant. In kind it is cell-based. To be noted: Streptococcus pyogenes.
Regarding `CSC1O[C@H]([C@H](NC(=O)[C@H]2NC[C@@H]3CC(c4ccc(F)cc4)=CCO[C@H]32)[C@H](C)Cl)C(O)[C@@H](O)[C@H]1O` (stereo partly shown) [FSA-507057], the MIC is > 64 µg/mL.

In a further assay the test system is S. aureus ATCC 29213. Put plainly: MIC against S. aureus ATCC 29213. In kind it is cell-based. The conditions noted are these: Staphylococcus aureus, ATCC29213, S. aureus ATCC 29213; read-out: MIC.
Turning to `CSC1O[C@H]([C@H](NC(=O)[C@H]2NC[C@@H]3CC(c4ccc(F)cc4)=CCO[C@H]32)[C@H](C)Cl)C(O)[C@@H](O)[C@H]1O` (stereo partly shown) [FSA-507057], the MIC worked out at 2 µg/mL (≈ 3.77 µM).

Another assay concerns S. pneumoniae ATCC 49619. Put plainly: MIC against S. pneumoniae ATCC 49619. To be noted: Streptococcus pneumoniae, ATCC49619; S. pneumoniae ATCC 49619; read-out: MIC. In kind it is cell-based.
Take `CSC1O[C@H]([C@H](NC(=O)[C@H]2NC[C@@H]3CC(c4ccc(F)cc4)=CCO[C@H]32)[C@H](C)Cl)C(O)[C@@H](O)[C@H]1O` (stereo partly shown) [FSA-507057]: the MIC was ≤ 0.06 µg/mL.

The subject of a further assay is E. coli MMX TolC parent strain. Put plainly: MIC against E. coli MMX TolC parent strain. The assay is classed as cell-based. To be noted: Escherichia coli.
Turning to `CSC1O[C@H]([C@H](NC(=O)[C@H]2NC[C@@H]3C=C(c4ccc(C(F)(F)F)cc4)CCO[C@@H]23)[C@H](C)Cl)C(O)[C@@H](O)[C@H]1O` (stereo partly shown) [FSA-507053], the MIC is > 64 µg/mL.
On to `CSC1O[C@H]([C@H](NC(=O)[C@H]2NC[C@@H]3CC(c4ccc(F)cc4)=CCO[C@H]32)[C@H](C)Cl)C(O)[C@@H](O)[C@H]1O` (stereo partly shown) [FSA-507057], for which the MIC is > 64 µg/mL.
